Assay results taken from patent US12168010B2, “Use of co-enzyme antagonists to slow metabolism” (priority 2020, dated 2024).
“Also recorded” adds a separate entry of the source.

Experiments:
[1] = rat, in vivo, po
Source text: This means that there is a very efficient cleavage of B-OT into OT, and a high percentage amount of OT is present in the blood. Thus, B-OT is a pharmacokinetically good and orally applicable substance that allows good and efficient delivery of OT. Since OT usually must/should be administered intraperitoneally, the oral administration of B-OT represents an important advantage in comparison. The bioavailability and absorption of B-OT is also more suitable for human therapy due to the more lipophilic basic structure of B-OT compared to OT. Compared to OT, B-OT is thus better, easier and safer to use as a drug.

[2] = Study in dogs on the conversion of B-OT to OT (toxicokinetics of OT in plasma, tolerability); format: in vivo, dogs (Beagle breed)
Protocol: FIG. 1: Change in individual plasma concentrations of OT with time (over 24 hours) in male beagle dogs. The y-axis indicates—the plasma concentration in ng/ml. • On the x-axis the time is indicated in hours (h=hours) • (a) Change in individual plasma concentrations on day 1 after administration of a single dose of B-OT in an amount of 1 mg/kg/day. • The symbols mean: • —⋄—=dog no. 3001 • —□—=dog no. 3002 • (b) Change in individual plasma concentrations on day 1 after administration of a single dose of B-OT in an amount of 0.5 mg/kg/day. • The symbols mean: • —Δ—=dog no. 4001 • —∘—=dog no. 4002 • (c) Change in individual plasma concentrations at day 7 after seven days of administration of single doses of B-OT in an amount of 0.5 mg/kg/day. • The symbols mean: • —Δ—=dog no. 4001 • —∘—=dog no. […] • (d) Change in mean plasma concentrations on day 1 after administration of a single dose of B-OT at 1 mg/kg/day, and on day 1 and day 7 after daily administration of single doses of B-OT in an amount of 0.5 mg/kg/day. • The symbols mean: • —□—=group 3, 1.0 mg/kg/day, day 1 • —Δ—=Group 4, 0.5 mg/kg/day, day 1. • —∘—=group 4, 0.5 mg/kg/day, day 7.
Male and female dogs (Beagle breed) were administered B-OT (benfo-oxythiamine) orally once daily for periods of one to seven days in amounts of 1 mg/kg/day or 0.5 mg/kg/day.
The toxicokinetics of the active metabolite OT (oxythiamine) was determined in plasma samples obtained on the first day “Day 1” and on the seventh day “Day 7” after the start of administration. The measurement results obtained are shown graphically in FIGS. 1 (a) to (d).

[3] = Change in pulse beat (heart rate) in dogs after administration of B-OT; format: in vivo; details: over 24 hours, B-OT 0.05, 0.15, 0.5 mg/kg/day
Protocol: FIG. 2: Graph showing the change in plus beat with time in dogs after administration of different amounts (doses) of B-OT. On the y-axis, the pulse beat (heart rate) is given in beats per minute (bpm). On the x-axis, the time is given in hours. • The symbols mean: • —●=0 mg/kg/day—Benfooxythiamine=0 mg/kg/day—B-OT • —□—=0.05 mg/kg/day—Benfooxythiamine=0.05 mg/kg/day—B-OT • —Δ—=0.15 mg/kg/day—Benfooxythiamine=0.15 mg/kg/day—B-OT • −⋄—=0.5 mg/kg/day—Benfooxythiamine=0.5 mg/kg/day—B-OT
By slowing down (throttling) the metabolism, GSSV also causes a reduction in the energy released with it. The body attempts to compensate for the lower energy release by increasing the pulse rate in order to transport more oxygen into the body so that more energy can be released as a result. The increase in the patient's pulse beat is an indication and a suitable parameter that GSSV has inhibited energy release and to what extent. If there is a sharp increase in pulse rate, e.g., in a person a pulse rate above 90, countermeasures may be necessary to increase energy release again.

[4] = Comparison of B-OT amounts per kg body weight in dogs and humans versus rats and mice; format: in vivo
SARS-CoV-2 = experiment: Curative trials: B-OT in addition to standard therapy in patients with covid-19 pneumonia
[5] = In vivo pharmacokinetics: oxythiamine in the brain after B-OT administration
[6] = all patients with additional B-OT therapy

C/C(=C(/CCOP(=O)(O)O)SC(=O)c1ccccc1)N(C=O)Cc1cnc(C)[nH]c1=O [B-OT, benfo-oxythiamine]
B-OT (prodrug form) measurable in the blood [1]: 0%
share of total amount of B-OT administered measurable in the blood in the form of oxythiamine (OT) [1]: 44%
behavior and physical condition ([2]; dog, in vivo): No relevant abnormalities
body weight ([2]; dog, in vivo): no significant variations in body weight
systemic exposure to OT / B-OT ([2]; dog, in vivo, po): exposed to the active metabolite OT but not to the preform (prodrug) B-OT
tolerability of treatment ([2]; dogs, oral B-OT 1 or 0.5 mg/kg/day, one to seven days): well tolerated
pulse beat (heart rate) [3]: significant increase in pulse beat
reaction of dogs and humans to B-OT amounts per kg applied to rats and mice ([4]; rodent amounts per kilogram body weight used in dogs and humans): in many cases led to death
dose usable in humans and dogs compared to published amounts used in rats and mice ([4]; to avoid serious, sometimes fatal, courses): approximately two hundredfold lower dose
viral pneumonia infiltrates in lung computed tomography (SARS-CoV-2; after 7 days of B-OT therapy versus before): marked decrease in infiltrates; also recorded: marked decrease of infiltrates; also recorded: significant decrease in the previously pronounced infiltrates
C-reactive Protein (CRP) (SARS-CoV-2; [6]): significant reduction
Interleukin-6 (IL-6) (SARS-CoV-2; [6]): significant reduction
required inpatient stay (SARS-CoV-2; compared with the overall collective of more than 700 patients): on average one week less
side effects attributable to B-OT (SARS-CoV-2; four covid-19 pneumonia patients, 6 mg B-OT per day perorally for seven days): None of the patients showed side effects
need for intensive care (SARS-CoV-2; four covid-19 pneumonia patients, 6 mg B-OT per day perorally for seven days plus standard therapy): none of the four patients required intensive care
need for respiratory support therapy beyond nasal cannula or mask oxygen insufflation (SARS-CoV-2; four patients with additional B-OT therapy, versus overall collective of more than 700 patients): none of the four patients
lung computed tomography at follow-up (SARS-CoV-2; patient 2, one month after the end of therapy): stable findings

Cc1ncc(C[n+]2csc(CCO)c2C)c(=O)[nH]1 [OT, oxythiamine]
oxythiamine in the brain after B-OT is administered [5]: present in significant amounts in the brain
time of maximum OT plasma concentration (Tmax) after administration of B-OT ([2]; Beagle dogs, oral B-OT, all applied doses): between one and two hours
systemic exposure to OT / B-OT ([2]; dogs treated orally with B-OT): achieved in all animals
increase in plasma concentrations of oxythiamine (OT) with B-OT dose ([2]; dogs, stepwise increase of B-OT dose from 0.2 mg/kg to 1.0 mg/kg): approximately linearly proportional to the increase in dose
increase in plasma OT based on dose-normalized Cmax and partial AUC ([2]; male beagle dogs, oral B-OT single doses, over the range of applied doses): less than dose-proportional increase
